Experimental findings from patent US5444155A, “Molecules with antibody combining sites that induce asymmetry” (The Scripps Research Institute, priority 1991, dated 1995) are described below.

The term Km denotes the substrate concentration at which the rate is half of its maximum. Usually Ki stands for a measure of affinity in units of concentration, obtained from inhibition or displacement.

Where two headings read alike, the source gives them in different places.

For experiment [1], the system named is monoclonal antibody (catalytic receptor) produced by hybridoma 37E8, ATCC HB 10868. Type of experiment: biochemical, mouse.
Experiment [2] concerns the target T1, Butyl Cholinesterase EC 3.1.1.8, from horse serum (Sigma) (Equus caballus, UniProt P81908).
T1 construct: purchased Sigma Chemical Co., St. Louis
Nature of the experiment: Hydrolysis of Compound 1 by authentic butyl cholinesterase, assayed by gas chromatography. Format: biochemical. As to the method: The production of Compound 2 by a monoclonal antibody composition of this invention was assayed at a concentration of 10 μM monoclonal antibody and 1 mM Compound 1 in pH 8.0 ATE buffer (0.52M ACES, 0.52M Tris, 0.01M ethanolamine) at 37° C. The initial rate of hydrolysis of Compound 1 by the monoclonal antibodies produced by hybridoma 37E8 followed Michaelis-Menten kinetics (Table 1 hereinafter).
The conditions used for this study were as follows. Monoclonal antibodies produced by hybridoma 37E8 (10 μM) were added to a solution of 800 μM Compound 1 and 25 μM Compound C. Under these conditions, the substrate concentration was at saturation for the monoclonal antibody (4.5Km) and at approximately Km for either cholinesterase.
^b EC 3.1.1.8. From horse serum (Sigma Chemical Co., St. Louis),
All assays consisted of determining the amount of Compound 2 by gas chromatography analysis (Hewlett Packard 5890A, carbowax 30 m, 0.53 mm bore, capillary column) with ethyl levulinate as an internal standard.

The target in experiment [3] is Acetyl Cholinesterase EC 3.1.1.7, Type VS, electric eel (Sigma) (Electrophorus electricus, UniProt O42275). The experiment can be described thus: Hydrolysis of Compound 1 by authentic acetyl cholinesterase, assayed by gas chromatography.
Sequence of Acetyl Cholinesterase EC 3.1.1.7, Type VS, electric eel (Sigma) (O42275 24-633): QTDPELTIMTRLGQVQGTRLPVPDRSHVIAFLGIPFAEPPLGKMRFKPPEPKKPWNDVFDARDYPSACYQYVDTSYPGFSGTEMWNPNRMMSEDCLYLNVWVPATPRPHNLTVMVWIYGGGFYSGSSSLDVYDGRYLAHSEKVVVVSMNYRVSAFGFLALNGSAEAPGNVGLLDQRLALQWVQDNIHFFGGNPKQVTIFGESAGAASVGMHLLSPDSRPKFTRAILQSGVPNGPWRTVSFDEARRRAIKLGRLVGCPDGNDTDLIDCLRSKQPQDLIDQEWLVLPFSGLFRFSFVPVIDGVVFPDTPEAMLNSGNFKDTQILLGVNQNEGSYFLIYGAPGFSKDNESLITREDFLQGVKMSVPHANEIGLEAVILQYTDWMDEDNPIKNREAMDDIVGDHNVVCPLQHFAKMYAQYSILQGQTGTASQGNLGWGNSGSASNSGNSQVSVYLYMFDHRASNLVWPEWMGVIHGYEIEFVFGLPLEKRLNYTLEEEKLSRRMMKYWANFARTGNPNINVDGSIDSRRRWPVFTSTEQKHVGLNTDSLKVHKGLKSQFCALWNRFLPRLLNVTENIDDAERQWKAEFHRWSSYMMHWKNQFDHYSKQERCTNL

T1 sequence (P81908 whole entry): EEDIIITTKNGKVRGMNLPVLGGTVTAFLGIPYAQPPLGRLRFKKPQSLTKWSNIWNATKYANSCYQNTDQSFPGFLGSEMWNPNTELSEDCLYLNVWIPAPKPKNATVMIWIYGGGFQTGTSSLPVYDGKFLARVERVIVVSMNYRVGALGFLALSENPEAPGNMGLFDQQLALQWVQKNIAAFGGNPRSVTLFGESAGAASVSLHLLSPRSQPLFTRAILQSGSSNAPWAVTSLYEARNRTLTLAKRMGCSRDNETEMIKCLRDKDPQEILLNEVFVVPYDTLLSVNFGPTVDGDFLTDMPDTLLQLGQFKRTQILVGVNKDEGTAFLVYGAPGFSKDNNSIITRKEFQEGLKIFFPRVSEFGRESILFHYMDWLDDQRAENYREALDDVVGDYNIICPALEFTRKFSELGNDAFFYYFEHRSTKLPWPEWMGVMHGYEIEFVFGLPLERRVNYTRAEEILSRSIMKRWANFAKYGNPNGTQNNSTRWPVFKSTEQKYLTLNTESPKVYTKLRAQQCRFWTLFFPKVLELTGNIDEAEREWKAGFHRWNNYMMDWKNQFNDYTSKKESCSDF

`CC(=O)O[C@@H]1C=C[C@H](OC(C)=O)C1` [Compound 1, cis-3,5-diactoxycyclopent-1-ene]: the “kcat (hydrolysis of Compound 1)” value in experiment [1] (pH 8) stood at 0.007. For the same molecule, in experiment [1] (pH 8, read-out: Km (hydrolysis of Compound 1)), the Km stood at 177 µM.

In the case of `CC(=O)O[C@H]1C=C[C@@H](OP(=O)(O)CCCCCC(=O)O)C1` [Compound C], the “inhibition by free Compound C” value in experiment [2] (800 μM Compound 1, 25 μM Compound C) is “no inhibition”; in experiment [3], “no inhibition”. Moreover, the Ki in experiment [2] (0.0117 units enzyme used, read-out: ki (hydrolysis of Compound 1, inhibitor Compound C)) was determined as 800 µM; in experiment [3], 630 µM; in experiment [1] (read-out: Ki (free Compound C)), 7 µM; in experiment [1] (read-out: ki (inhibition of hydrolysis of Compound 1 by free Compound C)), 7 µM. Moreover, the “inhibition of the hydrolytic reaction by free Compound C” value in experiment [1] is “extensive inhibition”.
